{"source": "patent US20230414634A1", "about": "“METHODS FOR TREATING CHOLESTATIC PRURITUS” (GlaxoSmithKline Intellectual Property (No.2) Limited, priority 2020, published 2023)", "key": {"[1]": {"system": "patients with PBC and cholestatic pruritus", "experiment": "GLIMMER Phase 2b study: safety and tolerability (adverse events, Safety population)", "format": "in vivo, human", "from_the_text": "Secondary and exploratory endpoints: itch efficacy, quality of life (PBC-40) and pharmacodynamic biomarkers, and safety and tolerability.\nIn the GLIMMER trial, once daily dosing (QD) was expected to be the optimum dosing regimen. The rationale for QD was as follows: i) it was considered optimal to administer one dose in the morning alone, avoiding administering a dose at night in order to minimise the known side effect of diarrhoea during the night, and ii) one dose per day is generally expected to result in a better patient compliance. The tablet sizes employed in the trial were 10 mg and 45 mg which allowed administration of different dose sizes by combining tablets.\nAs illustrated in FIG. 1(i), the initial dose sizes were: placebo, 20 mg QD, 90 mg QD and 180 mg QD. Also included was a dose size of 90 mg BID which was evaluated in the earlier Phase 2a study. […] This warranted a further investigation of twice daily dosing. It was decided to add a new 40 mg BID group, and to cease the 20 mg QD dose."}, "[2]": {"system": "PBC patients with pruritus", "experiment": "Phase 2a crossover clinical study BAT117213 (NCT01899703) of GSK672 versus placebo", "format": "in vivo, human", "method": "A Phase 2a clinical study (NCT01899703; GSK study BAT117213) was carried out to investigate the safety, tolerability, and effect of repeat doses of GSK672 administration in patients with cholestatic pruritus in Primary Biliary Cholangitis (PBC). The results of this study have been summarized and published on clintrials.gov (NCT01899703).\nA phase 2 double-blind, randomised, placebo controlled, crossover trial in PBC patients with pruritus was conducted at two specialist PBC centres in the United Kingdom between March 2014 and November 2015. Subjects received oral 45 to 90 mg GSK672 (45 mg BID for Day 1 to 3 and 90 mg BID for Days 4 to 14) and placebo twice daily for 14 days, in a crossover sequence.\nThe three different itch rating scales were employed: 10-point NRS, 5D Itch Scale and PBC-40.\nThe primary end point was safety (measured by clinical and laboratory assessments and adverse events (AEs)) and tolerability. Secondary end points were: i) changes in pruritus scores from baseline measured using a 0 to 10 numerical rating scale (NRS) completed twice daily and PBC-40 itch domain scores and 5-D itch scale and ii) changes in serum levels of total bile acids and C4. Serum levels of ATX activity and FGF-19 were measured at baseline and at the end of each treatment period.\nAn analysis was carried out as to the effect of 90 mg BID. No analysis was carried out as to the effect of 45 mg BID as this dose was administered for Days 1 to 3 in order to ease patients onto the higher 90 mg BID dose."}}, "data": [{"smiles": "CCCC[C@]1(CC)CS(=O)(=O)c2cc(CNC(CC(=O)O)CC(=O)O)c(OC)cc2[C@@H](c2ccccc2)N1", "note": "[linerixibat]", "values": [{"measurement": "Abdominal distension: number of patients", "setting": "[1]; 20 mg QD (N = 14)", "result": 0}, {"measurement": "Abdominal pain lower: % of patients", "setting": "[1]; 20 mg QD (N = 14)", "result": "(7%)"}, {"measurement": "Abdominal pain lower: number of patients", "setting": "[1]; 20 mg QD (N = 14)", "result": 1}, {"measurement": "Abdominal pain upper: % of patients", "setting": "[1]; 20 mg QD (N = 14)", "result": "(14%)"}, {"measurement": "Abdominal pain upper: number of patients", "setting": "[1]; 20 mg QD (N = 14)", "result": 2}, {"measurement": "Abdominal pain: % of patients", "setting": "[1]; 20 mg QD (N = 14)", "result": "(14%)"}, {"measurement": "Abdominal pain: number of patients", "setting": "[1]; 20 mg QD (N = 14)", "result": 2}, {"measurement": "Adverse events Main Study, ANY EVENT: % of patients", "setting": "[1]; 20 mg QD (N = 14)", "result": "(57%)"}, {"measurement": "Adverse events Main Study, ANY EVENT: number of patients", "setting": "[1]; 20 mg QD (N = 14)", "result": 8}, {"measurement": "Diarrhoea: % of patients", "setting": "[1]; 20 mg QD (N = 14)", "result": "(36%)"}, {"measurement": "Diarrhoea: number of patients", "setting": "[1]; 20 mg QD (N = 14)", "result": 5}, {"measurement": "Dry mouth: % of patients", "setting": "[1]; 20 mg QD (N = 14)", "result": "(14%)"}, {"measurement": "Dry mouth: number of patients", "setting": "[1]; 20 mg QD (N = 14)", "result": 2}, {"measurement": "Flatulence: % of patients", "setting": "[1]; 20 mg QD (N = 14)", "result": "(7%)"}, {"measurement": "Flatulence: number of patients", "setting": "[1]; 20 mg QD (N = 14)", "result": 1}, {"measurement": "Gastrointestinal disorders, Any event: % of patients", "setting": "[1]; 20 mg QD (N = 14)", "result": "(50%)"}, {"measurement": "Gastrointestinal disorders, Any event: number of patients", "setting": "[1]; 20 mg QD (N = 14)", "result": 7}, {"measurement": "Gastrooesophageal reflux disease: % of patients", "setting": "[1]; 20 mg QD (N = 14)", "result": "(7%)"}, {"measurement": "Gastrooesophageal reflux disease: number of patients", "setting": "[1]; 20 mg QD (N = 14)", "result": 1}, {"measurement": "Nausea: % of patients", "setting": "[1]; 20 mg QD (N = 14)", "result": "(7%)"}, {"measurement": "Nausea: number of patients", "setting": "[1]; 20 mg QD (N = 14)", "result": 1}, {"measurement": "Vomiting: % of patients", "setting": "[1]; 20 mg QD (N = 14)", "result": "(7%)"}, {"measurement": "Vomiting: number of patients", "setting": "[1]; 20 mg QD (N = 14)", "result": 1}, {"measurement": "gastrointestinal tolerability data", "setting": "[1]; 40 mg BID versus higher doses", "result": "favored 40 mg BID dosing over higher doses"}, {"measurement": "Abdominal distension: number of patients", "setting": "[1]; 90 mg BID (N = 13)", "result": 0}, {"measurement": "Abdominal pain upper: number of patients", "setting": "[1]; 90 mg BID (N = 13)", "result": 0}, {"measurement": "Abdominal pain: number of patients", "setting": "[1]; 90 mg BID (N = 13)", "result": 1}, {"measurement": "Adverse events Main Study, ANY EVENT: % of patients", "setting": "[1]; 90 mg BID (N = 13)", "result": "(69%)"}, {"measurement": "Adverse events Main Study, ANY EVENT: number of patients", "setting": "[1]; 90 mg BID (N = 13)", "result": 9}, {"measurement": "Diarrhoea: number of patients", "setting": "[1]; 90 mg BID (N = 13)", "result": 5}, {"measurement": "Dry mouth: number of patients", "setting": "[1]; 90 mg BID (N = 13)", "result": 0}, {"measurement": "Flatulence: number of patients", "setting": "[1]; 90 mg BID (N = 13)", "result": 0}, {"measurement": "Gastrointestinal disorders, Any event: number of patients", "setting": "[1]; 90 mg BID (N = 13)", "result": 5}, {"measurement": "Gastrooesophageal reflux disease: number of patients", "setting": "[1]; 90 mg BID (N = 13)", "result": 0}, {"measurement": "Nausea: % of patients", "setting": "[1]; 90 mg BID (N = 13)", "result": "(15%)"}, {"measurement": "Nausea: number of patients", "setting": "[1]; 90 mg BID (N = 13)", "result": 2}, {"measurement": "Vomiting: % of patients", "setting": "[1]; 90 mg BID (N = 13)", "result": "(8%)"}, {"measurement": "Vomiting: number of patients", "setting": "[1]; 90 mg BID (N = 13)", "result": 1}, {"measurement": "tolerability at interim analysis", "setting": "[1]; 90 mg BID versus 180 mg QD", "result": "better tolerated than 180 mg QD"}, {"measurement": "Abdominal distension: % of patients", "setting": "[1]; 90 mg QD (N = 12)", "result": "(8%)"}, {"measurement": "Abdominal distension: number of patients", "setting": "[1]; 90 mg QD (N = 12)", "result": 1}, {"measurement": "Abdominal pain lower: % of patients", "setting": "[1]; 90 mg QD (N = 12)", "result": "(8%)"}, {"measurement": "Abdominal pain lower: number of patients", "setting": "[1]; 90 mg QD (N = 12)", "result": 1}, {"measurement": "Abdominal pain: % of patients", "setting": "[1]; 90 mg QD (N = 12)", "result": "(8%)"}, {"measurement": "Abdominal pain: number of patients", "setting": "[1]; 90 mg QD (N = 12)", "result": 1}, {"measurement": "Adverse events Main Study, ANY EVENT: % of patients", "setting": "[1]; 90 mg QD (N = 12)", "result": "(75%)"}, {"measurement": "Adverse events Main Study, ANY EVENT: number of patients", "setting": "[1]; 90 mg QD (N = 12)", "result": 9}, {"measurement": "Diarrhoea: % of patients", "setting": "[1]; 90 mg QD (N = 12)", "result": "(50%)"}, {"measurement": "Diarrhoea: number of patients", "setting": "[1]; 90 mg QD (N = 12)", "result": 6}, {"measurement": "Dry mouth: % of patients", "setting": "[1]; 90 mg QD (N = 12)", "result": "(8%)"}, {"measurement": "Dry mouth: number of patients", "setting": "[1]; 90 mg QD (N = 12)", "result": 1}, {"measurement": "Flatulence: number of patients", "setting": "[1]; 90 mg QD (N = 12)", "result": 0}, {"measurement": "Gastrointestinal disorders, Any event: % of patients", "setting": "[1]; 90 mg QD (N = 12)", "result": "(50%)"}, {"measurement": "Gastrointestinal disorders, Any event: number of patients", "setting": "[1]; 90 mg QD (N = 12)", "result": 6}, {"measurement": "Gastrooesophageal reflux disease: number of patients", "setting": "[1]; 90 mg QD (N = 12)", "result": 0}, {"measurement": "Nausea: number of patients", "setting": "[1]; 90 mg QD (N = 12)", "result": 0}, {"measurement": "Vomiting: number of patients", "setting": "[1]; 90 mg QD (N = 12)", "result": 0}, {"measurement": "Abdominal distension: % of patients", "setting": "[1]; 180 mg QD (N = 17)", "result": "(6%)"}, {"measurement": "Abdominal pain lower: number of patients", "setting": "[1]; 180 mg QD (N = 17)", "result": 0}, {"measurement": "Abdominal pain upper: % of patients", "setting": "[1]; 180 mg QD (N = 17)", "result": "(6%)"}, {"measurement": "Abdominal pain: number of patients", "setting": "[1]; 180 mg QD (N = 17)", "result": 5}, {"measurement": "Adverse events Main Study, ANY EVENT: % of patients", "setting": "[1]; 180 mg QD (N = 17)", "result": "(82%)"}, {"measurement": "Adverse events Main Study, ANY EVENT: number of patients", "setting": "[1]; 180 mg QD (N = 17)", "result": 14}, {"measurement": "Diarrhoea: number of patients", "setting": "[1]; 180 mg QD (N = 17)", "result": 10}, {"measurement": "Dry mouth: number of patients", "setting": "[1]; 180 mg QD (N = 17)", "result": 0}, {"measurement": "Flatulence: % of patients", "setting": "[1]; 180 mg QD (N = 17)", "result": "(6%)"}, {"measurement": "Gastrointestinal disorders, Any event: number of patients", "setting": "[1]; 180 mg QD (N = 17)", "result": 14}, {"measurement": "Gastrooesophageal reflux disease: number of patients", "setting": "[1]; 180 mg QD (N = 17)", "result": 0}, {"measurement": "Nausea: % of patients", "setting": "[1]; 180 mg QD (N = 17)", "result": "(6%)"}, {"measurement": "Nausea: number of patients", "setting": "[1]; 180 mg QD (N = 17)", "result": 1}, {"measurement": "Vomiting: % of patients", "setting": "[1]; 180 mg QD (N = 17)", "result": "(12%)"}, {"measurement": "Vomiting: number of patients", "setting": "[1]; 180 mg QD (N = 17)", "result": 2}, {"measurement": "most common AE", "setting": "[1]; in vivo", "result": "diarrhea"}, {"measurement": "pruritus severity compared to placebo (NRS, 5D Itch Scale and PBC-40)", "setting": "[2]; 90 mg BID, 22 subjects with PBC pruritus", "result": "statistically significant decrease"}, {"measurement": "reduction in itch intensity as compared to placebo", "setting": "[2]; 90 mg BID, 14 day crossover", "result": 71, "unit": "%"}, {"measurement": "itch intensity, PBC-40 itch domain, compared to placebo", "setting": "[2]; 90 mg BID, 95% CI: −0.94 to −0.24", "result": "−0.59"}, {"measurement": "itch intensity, 5-D itch, compared to placebo", "setting": "[2]; 90 mg BID, 95% CI: −6.60 to −2.49", "result": "−4.55"}, {"measurement": "itch intensity as measured by NRS, compared to placebo", "setting": "[2]; 90 mg BID, 95%CI: −2.48 to −0.68", "result": "−1.58"}, {"measurement": "fatigue, sleep disturbance and overall disability compared to placebo", "setting": "[2]; human, in vivo", "result": "Decreases"}, {"measurement": "time at which reduction of pruritus severity occurred", "setting": "[2]; human, in vivo", "result": "within the first week"}, {"measurement": "tolerability", "setting": "[2]; two weeks of oral twice daily 90 mg", "result": "well tolerated"}]}]}
